As usually defined, the IC50 is the concentration at which inhibition is half-maximal. Broadly, the Ki is the dissociation constant of the complex between target and ligand, obtained from inhibition or displacement.

For assay [1], the target named is 5-hydroxytryptamine receptor 2B (Homo sapiens, UniProt P41595). It is filed as cell membranes, CHO-K1, Membrane. Also: in other assays of this panel Not Active means under 50% inhibition at 10 µM.
The target in assay [2] is C-C chemokine receptor type 5 (Homo sapiens, UniProt P51681). It counts as cell membranes, Membrane. The following applies: hek293. Also: in other assays of this panel Not Active means under 50% inhibition at 10 µM.
Assay [3] concerns the target Prostaglandin G/H synthase 1 (Homo sapiens, UniProt P23219). Briefly: biochemical. It is filed as tissue-based, Platelet. The following applies: platelet.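 Also: inhibition of COX-1 enzyme activity, with arachidonic acid supplied as substrate; in other assays of this panel Not Active means under 50% inhibition at 10 µM.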
Assay [4] is described as follows: DRUGMATRIX: Glutamate, NMDA, Phencyclidine radioligand binding (ligand: [3H] TCP). It is filed as cell membranes, Rattus norvegicus, Wistar, Cerebral cortex, Membrane. The conditions noted are these: Not Active = under 50% inhibition at 10 µM.
Assay [5] can be described thus: DRUGMATRIX: Leukotriene, BLT (LTB4) radioligand binding (ligand: [3H]LTB4). The following applies: u-937; Not Active = under 50% inhibition at 10 µM. It counts as cell membranes, Membrane.
The target in assay [6] is T1, Amine oxidase [flavin-containing] A (Homo sapiens, UniProt P21397).
T1 sequence (P21397 whole entry): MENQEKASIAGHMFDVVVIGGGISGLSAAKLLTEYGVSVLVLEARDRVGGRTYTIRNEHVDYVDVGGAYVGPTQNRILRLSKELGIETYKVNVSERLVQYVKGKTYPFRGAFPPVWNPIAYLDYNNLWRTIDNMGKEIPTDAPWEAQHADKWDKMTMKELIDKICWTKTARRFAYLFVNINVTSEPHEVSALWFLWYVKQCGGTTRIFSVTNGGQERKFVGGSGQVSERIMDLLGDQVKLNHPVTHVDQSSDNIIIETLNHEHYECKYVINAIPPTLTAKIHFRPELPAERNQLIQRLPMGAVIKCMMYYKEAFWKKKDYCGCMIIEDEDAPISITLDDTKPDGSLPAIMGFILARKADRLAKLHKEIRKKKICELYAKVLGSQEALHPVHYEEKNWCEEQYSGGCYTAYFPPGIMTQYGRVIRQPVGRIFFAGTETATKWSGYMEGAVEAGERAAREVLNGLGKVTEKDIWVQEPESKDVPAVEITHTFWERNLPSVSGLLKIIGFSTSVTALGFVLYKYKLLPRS
Briefly: DRUGMATRIX: Monoamine Oxidase MAO-A enzyme inhibition (substrate: Kynuramine). The conditions noted are these: bti-tn-5b1-4; Not Active = under 50% inhibition at 10 µM. Set-up: species or system BTI-TN-5B1-4.

In assay [7] the target is Delta-type opioid receptor (Homo sapiens, UniProt P41143). It is filed as cell membranes, HEK293, Membrane. The following applies: hek293. Also: in other assays of this panel Not Active means under 50% inhibition at 10 µM.
In assay [8] the target is Estrogen receptor beta (Homo sapiens, UniProt Q92731). The conditions noted are these: sf9. Also: in other assays of this panel Not Active means under 50% inhibition at 10 µM.

SMILES strings stand for the structures.

5-hydroxytryptamine receptor 2B, sequence (P41595 whole entry): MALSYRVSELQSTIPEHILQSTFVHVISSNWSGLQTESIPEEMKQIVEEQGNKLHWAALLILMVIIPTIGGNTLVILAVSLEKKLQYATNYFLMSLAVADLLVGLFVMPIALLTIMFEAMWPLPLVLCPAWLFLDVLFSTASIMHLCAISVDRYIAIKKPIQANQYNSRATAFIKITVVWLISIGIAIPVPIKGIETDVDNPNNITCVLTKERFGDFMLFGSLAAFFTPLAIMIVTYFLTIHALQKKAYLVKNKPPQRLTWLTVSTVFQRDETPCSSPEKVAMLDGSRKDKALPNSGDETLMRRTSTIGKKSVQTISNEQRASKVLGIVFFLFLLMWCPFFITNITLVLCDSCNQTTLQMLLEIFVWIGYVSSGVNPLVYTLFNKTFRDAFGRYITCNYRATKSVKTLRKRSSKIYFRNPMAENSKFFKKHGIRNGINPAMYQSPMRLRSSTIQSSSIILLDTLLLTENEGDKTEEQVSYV
Delta-type opioid receptor, sequence (P41143 whole entry): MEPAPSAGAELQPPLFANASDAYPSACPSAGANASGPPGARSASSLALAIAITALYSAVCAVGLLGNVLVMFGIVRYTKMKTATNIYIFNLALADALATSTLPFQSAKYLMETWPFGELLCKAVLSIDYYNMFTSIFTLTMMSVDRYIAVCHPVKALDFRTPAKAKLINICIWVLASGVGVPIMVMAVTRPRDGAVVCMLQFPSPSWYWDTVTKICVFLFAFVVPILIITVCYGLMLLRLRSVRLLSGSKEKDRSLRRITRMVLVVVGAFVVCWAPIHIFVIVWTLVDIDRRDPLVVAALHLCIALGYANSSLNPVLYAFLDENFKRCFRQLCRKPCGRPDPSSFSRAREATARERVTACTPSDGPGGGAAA
C-C chemokine receptor type 5, sequence (P51681 whole entry): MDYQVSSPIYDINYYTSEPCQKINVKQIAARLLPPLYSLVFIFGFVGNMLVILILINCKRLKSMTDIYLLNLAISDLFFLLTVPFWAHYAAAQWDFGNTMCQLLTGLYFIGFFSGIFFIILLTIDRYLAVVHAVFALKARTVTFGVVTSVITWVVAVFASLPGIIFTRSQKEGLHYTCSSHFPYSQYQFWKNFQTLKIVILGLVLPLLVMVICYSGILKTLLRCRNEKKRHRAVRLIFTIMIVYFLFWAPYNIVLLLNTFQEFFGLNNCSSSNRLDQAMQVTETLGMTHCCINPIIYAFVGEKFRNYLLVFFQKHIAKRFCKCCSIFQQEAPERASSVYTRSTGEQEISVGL
Prostaglandin G/H synthase 1, sequence (P23219 whole entry): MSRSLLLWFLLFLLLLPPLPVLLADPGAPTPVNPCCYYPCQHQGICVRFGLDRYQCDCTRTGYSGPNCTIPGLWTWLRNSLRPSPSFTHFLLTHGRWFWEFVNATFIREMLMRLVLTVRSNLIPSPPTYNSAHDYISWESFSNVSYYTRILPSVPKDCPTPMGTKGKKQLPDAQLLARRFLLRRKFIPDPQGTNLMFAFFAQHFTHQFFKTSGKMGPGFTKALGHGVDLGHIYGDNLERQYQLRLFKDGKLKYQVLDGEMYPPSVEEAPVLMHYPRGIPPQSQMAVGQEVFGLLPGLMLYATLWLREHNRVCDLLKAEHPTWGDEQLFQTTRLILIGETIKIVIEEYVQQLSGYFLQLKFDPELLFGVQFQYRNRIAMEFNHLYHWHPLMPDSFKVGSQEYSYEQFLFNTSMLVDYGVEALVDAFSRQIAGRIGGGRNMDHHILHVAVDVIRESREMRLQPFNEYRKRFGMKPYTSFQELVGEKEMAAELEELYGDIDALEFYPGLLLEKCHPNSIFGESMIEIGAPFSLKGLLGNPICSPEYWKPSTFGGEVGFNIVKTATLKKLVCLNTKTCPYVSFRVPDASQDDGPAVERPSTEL
Estrogen receptor beta, sequence (Q92731 whole entry): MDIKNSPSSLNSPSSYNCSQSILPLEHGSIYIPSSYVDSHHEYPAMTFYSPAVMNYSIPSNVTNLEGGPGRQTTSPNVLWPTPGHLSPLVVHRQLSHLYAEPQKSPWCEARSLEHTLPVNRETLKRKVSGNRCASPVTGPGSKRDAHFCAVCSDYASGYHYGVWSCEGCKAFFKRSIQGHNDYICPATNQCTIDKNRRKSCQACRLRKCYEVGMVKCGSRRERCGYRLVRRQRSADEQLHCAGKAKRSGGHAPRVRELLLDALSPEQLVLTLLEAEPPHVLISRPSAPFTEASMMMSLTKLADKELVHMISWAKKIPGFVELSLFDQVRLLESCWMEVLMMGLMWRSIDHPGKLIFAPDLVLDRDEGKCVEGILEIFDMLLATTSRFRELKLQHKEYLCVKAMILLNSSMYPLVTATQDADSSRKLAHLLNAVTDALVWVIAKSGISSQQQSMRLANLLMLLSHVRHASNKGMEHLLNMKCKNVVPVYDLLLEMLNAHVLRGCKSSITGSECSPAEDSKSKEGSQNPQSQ

For the compound `Oc1ccccc1O` [CATECHOL], the half-maximal inhibitory concentration (IC50) result in assay [1] (cho-k1), in assay [2], in assay [3], in assay [4], in assay [5] and in assay [6] was “Not Active” throughout. Also, the half-inhibitory concentration (IC50) entry in assay [7] and in assay [8] was “Not Active” throughout. Also, the Ki entry in assay [4] and in assay [5] was “Not Active” in each case.
For `CO[C@@]1(NC(=O)CSCC#N)C(=O)N2C(C(=O)O)=C(CSc3nnnn3C)CS[C@@H]21` [CEFMETAZOLE], the IC50 result in assay [1] (cho-k1), in assay [2], in assay [3], in assay [4], in assay [5] and in assay [6] was “Not Active” in each case. For the same compound, the 50% inhibitory concentration (IC50) result in assay [7] and in assay [8] was “Not Active” each time. The Ki result in assay [4] and in assay [5] was “Not Active” each time.
Take `CN(C(=O)CCCOc1ccc2[nH]c(=O)ccc2c1)C1CCCCC1` [CILOSTAMIDE]: the half-inhibitory concentration (IC50) entry in assay [1] (cho-k1), in assay [2], in assay [3], in assay [4], in assay [5] and in assay [6] was “Not Active” each time. The IC50 entry in assay [7] and in assay [8] was “Not Active” throughout. Further, the inhibition constant Ki result in assay [4] and in assay [5] was “Not Active” throughout.
With `CC(C)(Oc1ccc(C2CC2(Cl)Cl)cc1)C(=O)O` (stereo unspecified) [CIPROFIBRATE], the IC50 result in assay [1] (cho-k1), in assay [2], in assay [3], in assay [4], in assay [5] and in assay [6] was “Not Active” throughout. In addition, the half-maximal inhibitory concentration (IC50) entry in assay [7] and in assay [8] was “Not Active” throughout. For the same compound, the Ki result in assay [4] and in assay [5] was “Not Active” each time.
Turning to `CCC[C@@H]1C[C@@H](C(=O)N[C@@H]([C@H]2O[C@H](SC)[C@H](O)[C@@H](O)[C@H]2O)[C@H](C)Cl)N(C)C1` [CLINDAMYCIN], the IC50 entry in assay [1] (cho-k1), in assay [2], in assay [3], in assay [4], in assay [5] and in assay [6] was “Not Active” in each case. For the same compound, the 50% inhibitory concentration (IC50) result in assay [7] and in assay [8] was “Not Active” each time. Besides, the inhibition constant Ki entry in assay [4] and in assay [5] was “Not Active” throughout.
Take `O=C(O)c1cc(=O)c2c(OCC(O)COc3cccc4oc(C(=O)O)cc(=O)c34)cccc2o1` [CROMOLYN]: the concentration for half-maximal inhibition (IC50) entry in assay [1] (cho-k1), in assay [2], in assay [3], in assay [4], in assay [5] and in assay [6] was “Not Active” each time. Besides, the IC50 result in assay [7] and in assay [8] was “Not Active” in each case. Besides, the inhibition constant (Ki) entry in assay [4] and in assay [5] was “Not Active” each time.
In the case of `O=P1(N(CCCl)CCCl)NCCCO1` (stereo unspecified) [CYCLOPHOSPHAMIDE ANHYDROUS], the half-maximal inhibitory concentration (IC50) result in assay [1] (cho-k1), in assay [2], in assay [3], in assay [4], in assay [5] and in assay [6] was “Not Active” in each case. Moreover, the concentration for half-maximal inhibition (IC50) entry in assay [7] and in assay [8] was “Not Active” throughout. Moreover, the Ki result in assay [4] and in assay [5] was “Not Active” in each case.
As for `CC(=O)O[C@]1(C(C)=O)CC[C@H]2[C@@H]3C=C(Cl)C4=CC(=O)[C@@H]5C[C@@H]5[C@]4(C)[C@H]3CC[C@@]21C` [CYPROTERONE ACETATE], the IC50 entry in assay [1] (cho-k1), in assay [2], in assay [3], in assay [4], in assay [5] and in assay [6] was “Not Active” in each case. Moreover, the IC50 entry in assay [7] and in assay [8] was “Not Active” in each case. Besides, the inhibitory constant (Ki) entry in assay [4] and in assay [5] was “Not Active” each time.
In the case of `Nc1nc(N)nc(NC2CC2)n1` [CYROMAZINE], the IC50 entry in assay [1] (cho-k1), in assay [2], in assay [3], in assay [4], in assay [5] and in assay [6] was “Not Active” in each case. The 50% inhibitory concentration (IC50) result in assay [7] and in assay [8] was “Not Active” each time. Also, the inhibitory constant (Ki) result in assay [4] and in assay [5] was “Not Active” each time.
Turning to `C#C[C@]1(O)CC[C@H]2[C@@H]3CCC4=Cc5oncc5C[C@]4(C)[C@H]3CC[C@@]21C` [DANAZOL], the concentration for half-maximal inhibition (IC50) result in assay [1] (cho-k1), in assay [2], in assay [3], in assay [4], in assay [5] and in assay [6] was “Not Active” each time. Besides, the IC50 result in assay [7] and in assay [8] was “Not Active” each time. Moreover, the Ki entry in assay [4] and in assay [5] was “Not Active” throughout.
Consider `CN1C[C@H](C(=O)N[C@]2(C)O[C@@]3(O)[C@@H]4CCCN4C(=O)[C@H](Cc4ccccc4)N3C2=O)C[C@@H]2c3cccc4[nH]cc(c34)C[C@H]21` [DIHYDROERGOTAMINE], for which the half-inhibitory concentration (IC50) is 6.8 nM in assay [1] (read-out: IC50); “Not Active” in assay [2]; “Not Active” in assay [3]; “Not Active” in assay [4]; “Not Active” in assay [5]; “Not Active” in assay [6]. In addition, the IC50 entry in assay [7] and in assay [8] was “Not Active” each time. For the same compound, the Ki was 4.33 nM in assay [1] (read-out: Ki), “Not Active” in assay [4] and “Not Active” in assay [5].
`Cc1c(N(C)CS(=O)(=O)[O-])c(=O)n(-c2ccccc2)n1C.[Na+]` [DIPYRONE SODIUM]: the IC50 result in assay [1] (cho-k1), in assay [2], in assay [3], in assay [4], in assay [5] and in assay [6] was “Not Active” each time. The IC50 entry in assay [7] and in assay [8] was “Not Active” each time. Moreover, the Ki entry in assay [4] and in assay [5] was “Not Active” each time.
Turning to `CC(CCc1ccc(O)cc1)NCCc1ccc(O)c(O)c1` (stereo unspecified) [DOBUTAMINE], the IC50 entry in assay [1] (cho-k1), in assay [2], in assay [3], in assay [4], in assay [5] and in assay [6] was “Not Active” in each case. The IC50 entry in assay [7] and in assay [8] was “Not Active” each time. Besides, the Ki entry in assay [4] and in assay [5] was “Not Active” throughout.
Consider `CCn1cc(C(=O)O)c(=O)c2cc(F)c(N3CCNCC3)nc21` [ENOXACIN], for which the IC50 result in assay [1] (cho-k1), in assay [2], in assay [3], in assay [4], in assay [5] and in assay [6] was “Not Active” throughout. The IC50 result in assay [7] and in assay [8] was “Not Active” in each case. Moreover, the Ki entry in assay [4] and in assay [5] was “Not Active” each time.
Take `CCC(=O)O[C@H]1[C@H](O[C@@H]2[C@@H](C)[C@H](O[C@H]3C[C@@](C)(OC)[C@@H](O)[C@H](C)O3)[C@@H](C)C(=O)O[C@H](CC)[C@@](C)(O)[C@H](O)[C@@H](C)C(=O)[C@H](C)C[C@@]2(C)O)O[C@H](C)C[C@@H]1N(C)C` [ERYTHROMYCIN PROPIONATE]: the IC50 result in assay [1] (cho-k1), in assay [2], in assay [3], in assay [4], in assay [5] and in assay [6] was “Not Active” each time. For the same compound, the IC50 entry in assay [7] and in assay [8] was “Not Active” throughout. Also, the Ki result in assay [4] and in assay [5] was “Not Active” throughout.
For `C#C[C@]1(O)CC[C@H]2[C@@H]3CCc4cc(O)ccc4[C@H]3CC[C@@]21C` [ETHINYL ESTRADIOL], the half-inhibitory concentration (IC50) result in assay [1] (cho-k1), in assay [2], in assay [3], in assay [4], in assay [5] and in assay [6] was “Not Active” each time. Also, the 50% inhibitory concentration (IC50) result in assay [7] and in assay [8] was “Not Active” in each case. Further, the inhibitory constant (Ki) entry in assay [4] and in assay [5] was “Not Active” in each case.
Consider `CC(=O)OCC(CCn1cnc2cnc(N)nc21)COC(C)=O` [FAMCICLOVIR], for which the IC50 result in assay [1] (cho-k1), in assay [2], in assay [3], in assay [4], in assay [5] and in assay [6] was “Not Active” throughout. In addition, the concentration for half-maximal inhibition (IC50) entry in assay [7] and in assay [8] was “Not Active” in each case. Also, the Ki entry in assay [4] and in assay [5] was “Not Active” in each case.
